Data as given in patent publication US20170239201A1, “GLYCOLIC ACID ENHANCES SPERM MOBILITY” (MAX-PLANCK-GESELLSCHAT ZUR FORDERUNG DER WISSENSCHAFTEN E.V., priority 2014, published 2017).

Experiments:
mouse sperm = assay: Mouse sperm motility and progressivity (CASA system, Hamilton-Thorne); type: cell-based; conditions: for difference in treated mouse sperm compared to controls: motility/progressivity
Experimental: Extract epididymis and open them in CPA medium (18% Raffinose and 3% Low fat milk powder). Let spermatozoids swim out for 5 min at room temperature.
For each condition, take 4 μl of mouse sperm in CPA and place in 196 μl of HTF medium from the incubator (at 37° C.). Let it incubate 5 min. in the 37° C. incubator, add substances to the HTF medium (see formulation below) and incubate for different times.
At each time point, fill a Leja-Slide with 25 μl of the HTF buffer containing the diluted sperm and place in the sperm counting machine (Hamilton-Thorne, USA). The machine takes 10 pictures per samples and analyses the different parameters (motility, progressivity,etc. . . . ). Sperm motility analysis was done blindly. Glycolic acid and […] were given to the technician from the facility as Substance 1 and Substance 2, only later did […] get to know which belong to what compound.
(§1) The examples tested the effect of 10 to 30 mM of glycolic acid and D-lactate on mouse sperm motility and progressivity or on bull motility. For this, epididymic mouse sperm from two strains (WT and DJ-1) or ejaculated frozen bull sperm was obtained. Sperm from each individual was divided and treated either with glycolic acid or with the vehicle for up to 90 minutes. Mouse sperm motility and progressivity was determined with the help of an automatized machine (CASA system, Hamilton-Thorne Research, http://www.hamiltonthorne.com/index.php/products/casa-products/sperm-analysis-systems-research) that uses high frequency photo images and image analysis to analyze these parameters. Frozen ejaculated bull sperm motility was assessed by an experienced technician. Mouse sperm from WT and DJ-1 mice was divided by the software into motile and non-motile sperm according to standardized parameters and results are given as percentages of the total population identified as motile sperm (FIG. 1-4). Sperm progressivity alone was analyzed only on the mouse sperm, as only the software from the CASA system is sensitive enough to make this analysis and this machine can only analyze mouse sperm. Bull sperm was divided into progressive motile, motile (the sum of progressive motile and motile on the spot) and the rest (FIGS. 5, 6 and 7).

bull sperm = assay: Bull sperm motility and progressive motility, defrosted sperm, assessed by technician; type: cell-based
Experimental: Frozen bull sperm was defrosted in a warm bath and centrifuged. The supernatant was removed and the sperms were resuspended in HTF-like medium alone or with glycolic acid. Sperms were incubated with the 10, 20 and 30 mM glycolic acid for 10 min. before the measurements began. Measurements were performed by an experienced technician from the urology department.
as §1

human sperm = assay: Human sperm motility, fresh and defrosted sperm; type: cell-based; conditions: 30 and 60 mM, significant (p<0.05) over whole experiment
Experimental: Human sperm was collected from donors after ejaculation and used on the same day. Frozen human sperm was defrosted in a warm bath before starting the experiments. The regional ethical committee approved sample collection and use of human sperm. Both fresh and frozen human sperm were centrifuged, the supernatant was removed and the sperms were resuspended in HTF-like medium alone or with glycolic acid. Sperms were incubated with the 30 and 60 mM glycolic acid for 10 min before the measurements began. Measurements were performed by an experienced technician from the urology department.
(§2) This enhancement can be observed in human sperm, both defrosted and fresh, and defrosted bull sperm. Two-way ANOVA analysis was used (much more restrictive than a t-Test). * means p<0.05, **p<0.01, ***p<0.001 and […]. […] Both sperm motility and mitochondrial measurements are normalized to a control at time-point 0.

[1] = system: sperm mitochondrial membrane potential; assay: Mitochondrial membrane potential of sperm (JC-1 and FACS sorting); type: cell-based; conditions: JC-1, FACS; normalized to control at time-point 0; FIG. 8
Text: as §2

[2] = estimated; cited from earlier work
[3] = 10 mM, 30 minutes after application, average stated for mouse and bull sperm

Compound | difference in treated mouse sperm compared to controls (mouse sperm) | increase in sperm motility (percentage of motile spermatozoids) (bull sperm; [3]) [%] | increase in sperm progressivity (percentage of motile spermatozoids that move forward) (bull sperm; [3]) [%] | bull sperm motility and progressivity at higher concentrations (bull sperm; 20 and 30 mM compared to 10 mM glycolic acid) | time over which the enhancement is sustained (bull sperm; both species) | sperm mobility, in particular sperm progressivity, at higher concentrations (bull sperm; concentrations up to 60 mM, data not shown) | sperm motility (FIG. 8), normalized to control at time-point 0 (bull sperm; defrosted bull sperm, significant (p<0.05) over whole experiment) | sperm motility (FIG. 8), normalized to control at time-point 0 (human sperm) | increase in sperm motility (percentage of motile spermatozoids) (mouse sperm; [3]) [%] | increase in sperm progressivity (percentage of motile spermatozoids that move forward) (mouse sperm; [3]) [%] | time over which the enhancement is sustained (mouse sperm; both species) | mitochondrial membrane potential [1] | minimum toxic dose [2]
C[C@@H](O)C(=O)O [D-lactate, reference compound] | not | – | – | – | – | – | – | – | – | – | – | – | –
O=C(O)CO [Glycolic acid, 2-hydroxyethanoic acid] | significance difference | 19 | 28 | further increase | up to 90 min | increase | enhances sperm motility | enhances sperm motility | 19 | 28 | up to 90 min | did not increase | –
OCCOCCO [diethylene glycol] | – | – | – | – | – | – | – | – | – | – | – | – | 0.14 mg glycolic acid per kg of body weight
